Consider 52 substances from patent US7420037B2, “Heat shock protein-based vaccines and immunotherapies” (Antigenics Inc., priority 2003, dated 2008).

Where “and” joins values, the source holds several entries; their conditions need not be identical. Identical values can stand only once. No end group written: not given here.

The subject of one experiment is CD8+ T cells.
Assay: not given
The following applies: mouse, in vivo. Details: species or system mice.
For “Hsp70: recombinant human heat shock protein 70”, the “Number of Spots, Con A Positive control” value was 965; the “Number of Spots, Con A positive control” value is 834; the “Number of Spots, Medium control” value was 1.50 and 1.00; the “Number of Spots, SIINFEKL” value came to 0.33. Further, the “Number of spots, Con A positive control” value was 552 spots per 300,000 CD8 T cells; the “Number of spots, Medium control” value was 0.00 spots per 300,000 CD8 T cells; the “Number of spots, SIINFEKL” value is 0.67 spots per 300,000 CD8 T cells; the “Number of spots, Unpulsed control” value is given as 0.50 spots per 300,000 CD8 T cells. In addition, the “Number of spots, VSV control” value is reported as 1.00 spots per 300,000 CD8 T cells.

The same experiment, now with this note: mouse, in vivo, sc.
As to “Hsp70: recombinant human heat shock protein 70”, the “Number of Spots, SIINFEKL” value is listed as 0.00.

The test system of a further experiment is recombinant human or murine heat shock protein 70 (hsp70).
Assay: not given
Format: binding.
Settings: not given
Turning to “SIINFEKLgsgNLLRLTGW (SIINFEKLGSGNLLRLTGW; not fully specified; printed as SIINFEKLgsgNLLRLTGW) [OVA + NLLRLTGW]”, the “increase in affinity for HSP70 (lower dissociation constant) over SIINFEKLGSGHWDFAWPW” value amounted to 15 fold.

The experiment is the same for the next values; noted with them: pH 8; read-out: Kd, peptide (epitope), heat shock protein-binding domain: None.
For the substance ALFDIESKV [PSMA P2, reference compound], the Kd came to 145 µM.
Same read-out and setting: the figure for “IMDQVPFSV [Gp100 (“IMD”), reference compound]” is 2560 µM.
Turning to SIINFEKL [OVA, reference compound], the Kd is 279 µM.
With “TLGIVCPI [HPV16 E7 (86-93), reference compound]”, the Kd turned out to be 187 µM.
Still for that read-out and setting: the figure for “YMDGTMSQV [Tyrosinase (“YMD”), reference compound]” is 204 µM.
Regarding “YMLDLQPETT [HPV16 E7 (11-20), reference compound]”, the Kd was found to be 91 µM.

The same experiment, now with this note: read-out: Epitope alone: Affinity for hsp70.
Turning to AFHHVAREL [reference compound], the Kd worked out at 84 µM.
Consider AIIRILQQL [reference compound], for which the Kd stood at 93 µM.
For the substance ALKHRAYEL [reference compound], the Kd was 97 µM.
With GLYDGMEHL [reference compound], the Kd was 48 µM.
Same read-out and setting: the result for ILKEPVHGV [reference compound] reads 83 µM; that for “IMDQVPFSV [Gp100 (“IMD”), reference compound]”, 2570 µM; that for KASEKIFYV [reference compound], 57 µM.
On to SLFNTVATL [reference compound], for which the Kd worked out at 35 µM.
In the case of SVYDFFVWL [reference compound], the Kd turned out to be 81 µM.
For the substance VIYQYMDDL [reference compound], the Kd was determined as 91 µM.
Still for that read-out and setting: the figure for VLDVGDAYFSV [reference compound] is 110 µM.
With YLEPGPVTV [reference compound], the Kd is 71 µM.
For “YMDGTMSQV [Tyrosinase (“YMD”), reference compound]”, the Kd stood at 209 µM.

The experiment is the same for the next values; noted with them: read-out: Hybrid antigen comprising epitope: Affinity for hsp70.
For the substance AFHHVARELGSGNLLRLTGW, the Kd came out at 2.1 µM.
AIIRILQQLGSGNLLRLTGW: the Kd is 0.6 µM.
Consider ALKHRAYELGSGNLLRLTGW, for which the Kd came out at 1.1 µM.
GLYDGMEHLGSGNLLRLTGW: the Kd came to 1.1 µM.
Regarding ILKEPVHGVGSGNLLRLTGW, the Kd was determined as 1.2 µM.
Still for that read-out and setting: the result for “IMDQVPFSVgsgNLLRLTGW (IMDQVPFSVGSGNLLRLTGW; not fully specified; printed as IMDQVPFSVgsgNLLRLTGW)” reads 0.9 µM; that for KASEKIFYVGSGNLLRLTGW, 1.4 µM; that for NLLRLTGWGSGRGYVYQGL, 1.4 µM.
As for NLLRLTGWGSGSHNFEKL, the Kd was found to be 1.6 µM.
Take SLFNTVATLGSGNLLRLTGW: the Kd was determined as 1.9 µM.
With SLLMWITQVGSGNLLRLTGW, the Kd is 2.2 µM.
The same measure, in the same setting: the result for SLYNTVATLGSGNLLRLTGW reads 1.8 µM.
Same read-out and setting: the figure for SVYDFFVWLGSGNLLRLTGW is 2.9 µM; for VIYQYMDDLGSGNLLRLTGW it is 1.7 µM; for VLDVGDAYFSVGSGNLLRLTGW it is 2 µM.
The same measure, in the same setting: the figure for YLEPGPVTVGSGNLLRLTGW is 2 µM; for YMDGTMSQVgsgNLLRLTGW it is 1.8 µM.

The same experiment, now with this note: read-out: Kd, heat shock protein-binding domain: FYQLALTW; pH 8; read-out: Kd, heat shock protein-binding domain: […].
As for FYQLALTW, the Kd stood at 5.9 µM.
As to “SIINFEKLgsgFYQLALTW (SIINFEKLGSGFYQLALTW; not fully specified; printed as SIINFEKLgsgFYQLALTW) [OVA + FYQLALTW]”, the Kd worked out at 1.43 µM.

Still in this experiment, the particulars now being: read-out: Kd, heat shock protein-binding domain: HWDFAWPW; pH 8; read-out: Kd, heat shock protein-binding domain: […].
“ALFDIESKVgsgHWDFAWPW (ALFDIESKVGSGHWDFAWPW; not fully specified; printed as ALFDIESKVgsgHWDFAWPW) [PSMA P2 + HWDFAWPW]”: the Kd turned out to be 22 µM.
Regarding HWDFAWPW, the Kd amounted to 120 µM.
Same read-out and setting: the result for “HWDFAWPWgsgSIINFEKL (HWDFAWPWGSGSIINFEKL; not fully specified; printed as HWDFAWPWgsgSIINFEKL)” reads 4.3 µM; that for “HWDFAWPWgsgYMDGTMSQV (HWDFAWPWGSGYMDGTMSQV; not fully specified; printed as HWDFAWPWgsgYMDGTMSQV)”, 29 µM.
The same measure, in the same setting: the result for “IMDQVPFSVgsgHWDFAWPW (IMDQVPFSVGSGHWDFAWPW; not fully specified; printed as IMDQVPFSVgsgHWDFAWPW)” reads 155 µM; that for “SIINFEKLgsgHWDFAWPW (SIINFEKLGSGHWDFAWPW; not fully specified; printed as SIINFEKLgsgHWDFAWPW) [OVA + HWDFAWPW]”, 40 µM.
As for “TLGIVCPIgsgHWDFAWPW (TLGIVCPIGSGHWDFAWPW) [HPV16 E7 (86-93) + HWDFAWPW]”, the Kd was 9.1 µM.
On to “YMDGTMSQVgsgHWDFAWPW (YMDGTMSQVGSGHWDFAWPW)”, for which the Kd was 24 µM.
“YMLDLQPETTgsgHWDFAWPW (YMLDLQPETTGSGHWDFAWPW) [HPV16 E7 (11-20) + HWDFAWPW]”: the Kd came out at 27 µM.

The experiment is the same for the next values; noted with them: read-out: Kd, heat shock protein-binding domain: NLLRLTGW; pH 8; read-out: Kd, heat shock protein-binding domain: […].
As for “IMDQVPFSVgsgNLLRLTGW (IMDQVPFSVGSGNLLRLTGW; not fully specified; printed as IMDQVPFSVgsgNLLRLTGW)”, the Kd was 3.1 µM.
Consider NLLRLTGW, for which the Kd came out at 1.85 µM.
Regarding PSMA P2 + NLLRLTGW, the Kd was found to be 1.3 µM.
For “SIINFEKLgsgNLLRLTGW (SIINFEKLGSGNLLRLTGW; not fully specified; printed as SIINFEKLgsgNLLRLTGW) [OVA + NLLRLTGW]”, the Kd is 1.2 µM.
“TLGIVCPIgsgNLLRLTGW [HPV16 E7 (86-93) + NLLRLTGW]”: the Kd was 5.2 µM.
Turning to YMDGTMSQVgsgNLLRLTGW, the Kd is 2.65 µM.

Staying with this experiment, now noted: read-out: Kd, heat shock protein-binding domain: RKLFFNLRW; pH 8; read-out: Kd, heat shock protein-binding domain: […].
For the substance RKLFFNLRW, the Kd was 15 µM.
As for “SIINFEKLgsgRKLFFNLRW (SIINFEKLGSGRKLFFNLRW; not fully specified; printed as SIINFEKLgsgRKLFFNLRW) [OVA + RKLFFNLRW]”, the Kd was 7 µM.

Another experiment relates to SIINFEKL-pulsed target cells. The experiment is described as follows: 51Cr-release CTL assay after immunization of mice. Format: in vivo. Particulars: Example 14; SIINFEKL-pulsed target cells. The procedure:
Mice were immunized s.c. at the base of the tail with the complexes listed above—[…] (SEQ ID NO:359) alone was added at a five-fold molar excess of the […] (SEQ ID NO:358) dose. 7 d later, spleens were harvested and stimulated in vitro with […] (SEQ ID NO:357) peptide. Values within bars represent the amount of epitope delivered. 100:1 E:T ratio shown.
In the same experiment, a ^51Cr-release assay as described above was done using […]-pulsed target cells. At an effector to target cell ratio of 200:1, the percent killing results obtained are shown in the far right column of the following table.
For “Hsp70: recombinant human heat shock protein 70”, the “CTL assay: % killing at 200:1 E/T” value is on record as 0%.

The experiment is the same for the next values; noted with them: Example 16; SIINFEKL-pulsed target cells.
Take “Hsp70: recombinant human heat shock protein 70”: the “CTL assay: % killing at 200:1 E/T” value was 8.45%.

Staying with this experiment, now noted: binding domain peptide alone added at five-fold molar excess.
With NLLRLTGW, the “effect on induction of an immune response by HSP70: SIINFEKLGSGHWDFAWPW mixture” value is on record as “prevent induction of an immune response”.

For a further experiment, the system named is γ-interferon-secreting CD8+ cells. The experiment is described as follows: γ-interferon-secreting CD8+ cells after immunization of mice and in vitro restimulation with […]. Particulars: mice immunized day 0, splenocytes day 7, restimulated 5 days; FIG. 1. It is filed as in vivo. How it is done:
Non-covalent complexes of recombinant human heat shock protein 70 and hybrid antigens of the invention were evaluated for biological activity in vivo. To evaluate the induction of an antigen-specific immune response, mice were immunized on day 0 with one of the following: (1) 100 μg human hsp70; (2) a noncovalent complex of 100 μg hsp70 and 15 μg […] (SEQ ID NO:357) (OVA peptide); (3) a noncovalent complex of 100 μg hsp70 and 15 μg […] (SEQ ID NO:368) (N-terminal OVA peptide, C-terminal heat shock protein binding domain […] (SEQ ID NO:358), GSG linker in between); and (4) a noncovalent complex of […] and 15 μg […] (SEQ ID NO:367) (N-terminal OVA peptide, C-terminal heat shock protein binding domain […] (SEQ ID NO:359), GSG linker in between).
On day 7, splenocytes were obtained from the immunized animals and were restimulated with peptide ([…]) (SEQ ID NO:357) in vitro for 5 days, after which the percent of γ-interferon-secreting CD8+ cells was determined.
Regarding “Hsp70: recombinant human heat shock protein 70”, the “immune response: percent of γ-interferon-secreting CD8+ cells” value is reported as “low level of response”.
